The target in experiment [1] is T1, human recombinant GR (Homo sapiens, UniProt P04150).
T1 construct: purchased PanVera P2812
T1 sequence (P04150 1-777): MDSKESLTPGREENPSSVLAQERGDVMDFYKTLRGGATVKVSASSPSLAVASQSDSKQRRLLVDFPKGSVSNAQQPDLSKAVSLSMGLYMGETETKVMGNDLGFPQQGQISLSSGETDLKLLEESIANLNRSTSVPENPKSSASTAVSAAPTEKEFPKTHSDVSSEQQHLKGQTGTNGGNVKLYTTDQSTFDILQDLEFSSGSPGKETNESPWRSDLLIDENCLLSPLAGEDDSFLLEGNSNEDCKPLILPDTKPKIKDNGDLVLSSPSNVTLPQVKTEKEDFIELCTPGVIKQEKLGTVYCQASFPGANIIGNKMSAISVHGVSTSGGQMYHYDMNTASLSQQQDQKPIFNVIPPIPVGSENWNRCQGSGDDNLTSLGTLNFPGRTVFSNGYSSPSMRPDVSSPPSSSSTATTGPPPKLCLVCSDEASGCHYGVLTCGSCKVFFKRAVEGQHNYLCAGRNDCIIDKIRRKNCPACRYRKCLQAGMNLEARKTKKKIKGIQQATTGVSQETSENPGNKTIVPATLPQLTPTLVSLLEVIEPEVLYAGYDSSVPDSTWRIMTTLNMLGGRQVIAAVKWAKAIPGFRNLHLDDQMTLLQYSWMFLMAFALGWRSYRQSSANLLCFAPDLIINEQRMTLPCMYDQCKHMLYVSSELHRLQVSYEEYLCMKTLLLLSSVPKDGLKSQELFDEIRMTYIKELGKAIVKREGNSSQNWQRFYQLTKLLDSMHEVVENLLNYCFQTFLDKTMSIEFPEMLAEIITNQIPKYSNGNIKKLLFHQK
Kind of experiment: Human glucocorticoid receptor (GR) fluorescence polarisation (FP) binding assay. The conditions noted are these: human recombinant GR, fluorescence polarisation binding assay; read-out: GR binding. A digest of the protocol:
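Competition fluorescence polarisation: 0.5 nM GS Red labelled glucocorticoid and 1 nM recombinant human GR with 8-point half-log compound series, 1% DMSO, 4 h room temperature, potassium phosphate pH 7.4 buffer with molybdate, EDTA, DTT. Affinity derived from the drop in polarisation, normalised to blank wells.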
In general terms: In fluorescence polarisation assays a small probe gives low polarisation when free and higher when bound to something large.

Experiment [2] relates to induction of TAT by dexamethasone in HepG2 cells. Kind of experiment: HepG2 tyrosine aminotransferase (TAT) assay. The class given is cell-based, human. The conditions noted are these: HepG2 cells, challenge of 100 nM dexamethasone; Ki from IC50 by Cheng and Prusoff equation.

The structures appear in SMILES notation.

In the case of `Cc1cnc(C(=O)[C@]23Cc4cnn(-c5ccc(F)cc5)c4C=C2CCN(S(=O)(=O)c2ccc(F)c(F)c2)C3)s1` [Example 12Q, (R)-(6-((3,4-difluorophenyl)sulfonyl)-1-(4-fluorophenyl)-4,4a,5,6,7,8-hexahydro-1H-pyrazolo[3,4-g]isoquinolin-4a-yl)(5-methylthiazol-2-yl)methanone], the Ki was above 1 nM in experiment [1] and below 20 nM in experiment [2].
Consider `Cc1cnc(C(=O)[C@]23Cc4cnn(-c5ccc(F)cc5)c4C=C2CCN(S(=O)(=O)c2ccc(Cl)c(F)c2)C3)s1` [Example 12R, (R)-(6-((4-chloro-3-fluorophenyl)sulfonyl)-1-(4-fluorophenyl)-4,4a,5,6,7,8-hexahydro-1H-pyrazolo[3,4-g]isoquinolin-4a-yl)(5-methylthiazol-2-yl)methanone], for which the values for the Ki in experiment [1] and in experiment [2] were 0.5 to 1 nM and below 20 nM, respectively.
Consider `Cc1cnc(C(=O)[C@]23Cc4cnn(-c5ccc(F)cc5)c4C=C2CCN(S(=O)(=O)c2ccn(C)n2)C3)s1` [Example 12S, (R)-(1-(4-fluorophenyl)-6-((1-methyl-1H-pyrazol-3-yl)sulfonyl)-4,4a,5,6,7,8-hexahydro-1H-pyrazolo[3,4-g]isoquinolin-4a-yl)(5-methylthiazol-2-yl)methanone], for which the results for the Ki in experiment [1] and in experiment [2] were below 0.5 nM and below 20 nM, respectively.
For `Cc1cnc(C(=O)[C@]23Cc4cnn(-c5ccc(F)cc5)c4C=C2CCN(S(=O)(=O)c2cnn(C)c2)C3)s1` [Example 12T, (R)-(1-(4-fluorophenyl)-6-((1-methyl-1H-pyrazol-4-yl)sulfonyl)-4,4a,5,6,7,8-hexahydro-1H-pyrazolo[3,4-g]isoquinolin-4a-yl)(5-methylthiazol-2-yl)methanone], the Ki in experiment [1] was below 0.5 nM; in experiment [2], below 20 nM.
The like results for `Cc1cc(S(=O)(=O)N2CCC3=Cc4c(cnn4-c4ccc(F)cc4)C[C@]3(C(=O)c3ncc(C)s3)C2)n(C)n1` [Example 12U, (R)-(6-((1,3-dimethyl-1H-pyrazol-5-yl)sulfonyl)-1-(4-fluorophenyl)-4,4a,5,6,7,8-hexahydro-1H-pyrazolo[3,4-g]isoquinolin-4a-yl)(5-methylthiazol-2-yl)methanone] were, in that order, above 1 nM and 20 to 100 nM.
Taken in the same sequence, the figures for `Cc1cnc(C(=O)[C@]23Cc4cnn(-c5ccc(F)cc5)c4C=C2CCN(S(=O)(=O)c2ccnn2C)C3)s1` [Example 12V, (R)-(1-(4-fluorophenyl)-6-((1-methyl-1H-pyrazol-5-yl)sulfonyl)-4,4a,5,6,7,8-hexahydro-1H-pyrazolo[3,4-g]isoquinolin-4a-yl)(5-methylthiazol-2-yl)methanone] were 0.5 to 1 nM and 20 to 100 nM.
In the case of `CCn1nccc1S(=O)(=O)N1CCC2=Cc3c(cnn3-c3ccc(F)cc3)C[C@]2(C(=O)c2nccs2)C1` [Example 12W, (R)-(6-((1-ethyl-1H-pyrazol-5-yl)sulfonyl)-1-(4-fluorophenyl)-4,4a,5,6,7,8-hexahydro-1H-pyrazolo[3,4-g]isoquinolin-4a-yl)(thiazol-2-yl)methanone], the Ki was above 1 nM in experiment [1] and at least 100 nM in experiment [2].
Taken in the same sequence, the figures for `CCn1cc(S(=O)(=O)N2CCC3=Cc4c(cnn4-c4ccc(F)cc4)C[C@]3(C(=O)c3nccs3)C2)cn1` [Example 12X, (R)-(6-((1-ethyl-1H-pyrazol-4-yl)sulfonyl)-1-(4-fluorophenyl)-4,4a,5,6,7,8-hexahydro-1H-pyrazolo[3,4-g]isoquinolin-4a-yl)(thiazol-2-yl)methanone] were below 0.5 nM and 20 to 100 nM.
As for `CCCn1cc(S(=O)(=O)N2CCC3=Cc4c(cnn4-c4ccc(F)cc4)C[C@]3(C(=O)c3nccs3)C2)cn1` [Example 12Y, (R)-(1-(4-fluorophenyl)-6-((1-propyl-1H-pyrazol-4-yl)sulfonyl)-4,4a,5,6,7,8-hexahydro-1H-pyrazolo[3,4-g]isoquinolin-4a-yl)(thiazol-2-yl)methanone], the figures for the Ki in experiment [1] and in experiment [2] were below 0.5 nM and below 20 nM, respectively.
Turning to `Cc1ccc(S(=O)(=O)N2CCC3=Cc4c(cnn4-c4ccc(F)cc4)C[C@]3(C(=O)c3nccn3C)C2)cc1` [Example 13, (R)-(1-(4-fluorophenyl)-6-tosyl-4,4a,5,6,7,8-hexahydro-1H-pyrazolo [3,4-g]isoquinolin-4a-yl)(1-methyl-1H-imidazol-2-yl)methanone], the Ki in experiment [1] fell in the range of 0.5 to 1 nM; in experiment [2], 20 to 100 nM.
With `Cc1cccc(S(=O)(=O)N2CCC3=Cc4c(cnn4-c4ccc(F)cc4)C[C@]3(C(=O)c3nccn3C)C2)c1` [Example 13A, (R)-(1-(4-fluorophenyl)-6-(m-tolylsulfonyl)-4,4a,5,6,7,8-hexahydro-1H-pyrazolo [3,4-g]isoquinolin-4a-yl)(1-methyl-1H-imidazol-2-yl)methanone], the Ki was below 0.5 nM in experiment [1] and 20 to 100 nM in experiment [2].
On to `CN(C)C(=O)c1cccc(S(=O)(=O)N2CCC3=Cc4c(cnn4-c4ccc(F)cc4)C[C@]3(C(=O)c3ccccn3)C2)c1` [Example 14, (R)-3-((1-(4-fluorophenyl)-4a-picolinoyl-4a,5,7,8-tetrahydro-1H-pyrazolo[3,4-g]isoquinolin-6 (4H)-yl)sulfonyl)-N,N-dimethylbenzamide], for which the Ki in experiment [1] was below 0.5 nM; in experiment [2], 20 to 100 nM.
Consider `CCn1cc(S(=O)(=O)N2CCC3=Cc4c(cnn4-c4ccc(F)cc4)C[C@]3(C(=O)c3cc(C(F)(F)F)ccn3)C2)cn1` [Example 15, (R)-(6-((1-ethyl-1H-pyrazol-4-yl)sulfonyl)-1-(4-fluorophenyl)-4,4a,5,6,7,8-hexahydro-1H-pyrazolo[3,4-g]isoquinolin-4a-yl)(4-(trifluoromethyl)pyridin-2-yl)methanone], for which the Ki in experiment [1] was below 0.5 nM; in experiment [2], below 20 nM.
With `O=C(c1ccccn1)[C@]12Cc3cnn(-c4cccnc4)c3C=C1CCN(S(=O)(=O)c1cccc(C(F)(F)F)c1)C2` [Example 15A, (R)-pyridin-2-yl(1-(pyridin-3-yl)-6-((3-(trifluoromethyl)phenyl)sulfonyl)-4,4a,5,6,7,8-hexahydro-1H-pyrazolo[3,4-g]isoquinolin-4a-yl)methanone], the Ki in experiment [1] was below 0.5 nM; in experiment [2], 20 to 100 nM.
For `O=C(c1ccccn1)[C@]12Cc3cnn(-c4ccccc4)c3C=C1CCN(S(=O)(=O)c1ccc(Cl)c(Cl)c1)C2` [Example 15B, (R)-(6-((3,4-dichlorophenyl)sulfonyl)-1-phenyl-4,4a,5,6,7,8-hexahydro-1H-pyrazolo[3,4-g]isoquinolin-4a-yl)(pyridin-2-yl)methanone], the results for the Ki in experiment [1] and in experiment [2] were below 0.5 nM and below 20 nM, respectively.
On to `O=C(c1ccccn1)[C@]12Cc3cnn(-c4ccc(F)c(F)c4)c3C=C1CCN(S(=O)(=O)c1ccc(Cl)c(Cl)c1)C2` [Example 15C, (R)-(6-((3,4-dichlorophenyl)sulfonyl)-1-(3,4-difluorophenyl)-4,4a,5,6,7,8-hexahydro-1H-pyrazolo[3,4-g]isoquinolin-4a-yl)(pyridin-2-yl)methanone], for which the figures for the Ki in experiment [1] and in experiment [2] were below 0.5 nM and 20 to 100 nM, respectively.
In the case of `COc1c(F)cc(S(=O)(=O)N2CCC3=Cc4c(cnn4-c4ccc(F)cc4)C[C@]3(C(=O)c3ccccn3)C2)cc1F` [Example 15D, (R)-(6-((3,5-difluoro-4-methoxyphenyl)sulfonyl)-1-(4-fluorophenyl)-4,4a,5,6,7,8-hexahydro-1H-pyrazolo[3,4-g]isoquinolin-4a-yl)(pyridin-2-yl)methanone], the Ki in experiment [1] was 0.5 to 1 nM; in experiment [2], below 20 nM.
In the case of `CN(C)c1ccc(S(=O)(=O)N2CCC3=Cc4c(cnn4-c4ccc(F)cc4)C[C@]3(C(=O)c3ccccn3)C2)cn1` [Example 16, (R)-(6-((6-(dimethylamino)pyridin-3-yl)sulfonyl)-1-(4-fluorophenyl)-4,4a,5,6,7,8-hexahydro-1H-pyrazolo[3,4-g]isoquinolin-4a-yl)(pyridin-2-yl)methanone], the results for the Ki in experiment [1] and in experiment [2] were below 0.5 nM and 20 to 100 nM, respectively.
Consider `Cn1cc(S(=O)(=O)N2CCC3=Cc4c(cnn4-c4ccc(F)cc4)C[C@]3(C(=O)c3cc(C(F)(F)F)ccn3)C2)cn1` [Example 18, (R)-(1-(4-fluorophenyl)-6-((1-methyl-1H-pyrazol-4-yl)sulfonyl)-4,4a,5,6,7,8-hexahydro-1H-pyrazolo[3,4-g]isoquinolin-4a-yl)(4-(trifluoromethyl)pyridin-2-yl)methanone], for which the Ki in experiment [1] was below 0.5 nM; in experiment [2], below 20 nM.
With `O=C(c1cscn1)[C@]12Cc3cnn(-c4ccc(F)cc4)c3C=C1CCN(S(=O)(=O)c1ccc(Cl)c(Cl)c1)C2` [Example 19, (R)-(6-((3,4-dichlorophenyl)sulfonyl)-1-(4-fluorophenyl)-4,4a,5,6,7,8-hexahydro-1H-pyrazolo[3,4-g]isoquinolin-4a-yl)(thiazol-4-yl)methanone], the Ki in experiment [1] was below 0.5 nM; in experiment [2], below 20 nM.

The record behind these values is patent US12226412B2, “Heteroaryl-ketone fused azadecalin glucocorticoid receptor modulators” (Corcept Therapeutics, Inc., priority 2012, dated 2025).
